As a reminder, the IC50 is the concentration at which inhibition is half-maximal.

This passage reports IC50 results from ChEMBL document CHEMBL4800725 (2021).

Molecules are shown by their SMILES. Calls of active or inactive are those of the source. The rule behind the calls is not given here.

For experiment [1], the target named is T1, Pantetheinase (Homo sapiens, UniProt O95497).
T1 sequence (O95497 whole entry): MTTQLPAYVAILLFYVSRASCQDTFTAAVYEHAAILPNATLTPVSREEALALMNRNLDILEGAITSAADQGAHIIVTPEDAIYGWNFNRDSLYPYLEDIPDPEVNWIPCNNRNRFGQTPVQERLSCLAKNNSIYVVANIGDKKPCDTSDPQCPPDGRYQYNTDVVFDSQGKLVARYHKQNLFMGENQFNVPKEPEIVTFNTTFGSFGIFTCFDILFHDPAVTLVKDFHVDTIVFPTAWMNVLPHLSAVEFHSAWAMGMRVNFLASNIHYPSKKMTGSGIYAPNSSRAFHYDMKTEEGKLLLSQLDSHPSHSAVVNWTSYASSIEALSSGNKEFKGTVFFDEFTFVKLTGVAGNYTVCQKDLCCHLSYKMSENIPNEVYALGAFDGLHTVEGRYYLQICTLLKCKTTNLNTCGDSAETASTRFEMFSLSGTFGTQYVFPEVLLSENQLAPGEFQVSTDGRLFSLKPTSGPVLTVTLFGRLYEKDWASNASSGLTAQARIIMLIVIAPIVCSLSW
As to the kind of experiment: Human recombinant vanin-1 assay.

For experiment [2], the target named is T1, Pantetheinase. As to the kind of experiment: Human plasma vanin-1 assay.
Experiment [3] deals with T2, Pantetheinase (Mus musculus, UniProt Q9Z0K8).
T2 sequence (Q9Z0K8 whole entry): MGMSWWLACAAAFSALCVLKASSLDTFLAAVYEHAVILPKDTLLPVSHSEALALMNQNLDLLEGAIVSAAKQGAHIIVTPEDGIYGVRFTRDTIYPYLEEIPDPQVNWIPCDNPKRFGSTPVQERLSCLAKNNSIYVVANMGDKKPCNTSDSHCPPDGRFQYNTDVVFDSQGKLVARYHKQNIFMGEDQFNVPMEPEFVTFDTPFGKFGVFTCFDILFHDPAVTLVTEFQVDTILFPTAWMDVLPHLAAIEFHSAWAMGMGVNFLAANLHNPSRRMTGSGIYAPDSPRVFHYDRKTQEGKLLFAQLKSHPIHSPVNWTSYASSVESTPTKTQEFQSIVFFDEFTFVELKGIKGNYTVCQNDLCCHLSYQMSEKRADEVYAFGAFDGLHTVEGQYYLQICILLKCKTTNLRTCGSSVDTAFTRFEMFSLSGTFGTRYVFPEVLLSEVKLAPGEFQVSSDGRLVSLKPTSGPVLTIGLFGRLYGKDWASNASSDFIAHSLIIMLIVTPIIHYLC
As to the kind of experiment: Mouse recombinant vanin-1 assay.

The target of experiment [4] is T2, Pantetheinase. As to the kind of experiment: Mouse plasma vanin-1 assay.
Experiment [5] addresses T3, Vanin 1 (Rattus norvegicus, UniProt Q4KLZ0).
T3 sequence (Q4KLZ0 whole entry): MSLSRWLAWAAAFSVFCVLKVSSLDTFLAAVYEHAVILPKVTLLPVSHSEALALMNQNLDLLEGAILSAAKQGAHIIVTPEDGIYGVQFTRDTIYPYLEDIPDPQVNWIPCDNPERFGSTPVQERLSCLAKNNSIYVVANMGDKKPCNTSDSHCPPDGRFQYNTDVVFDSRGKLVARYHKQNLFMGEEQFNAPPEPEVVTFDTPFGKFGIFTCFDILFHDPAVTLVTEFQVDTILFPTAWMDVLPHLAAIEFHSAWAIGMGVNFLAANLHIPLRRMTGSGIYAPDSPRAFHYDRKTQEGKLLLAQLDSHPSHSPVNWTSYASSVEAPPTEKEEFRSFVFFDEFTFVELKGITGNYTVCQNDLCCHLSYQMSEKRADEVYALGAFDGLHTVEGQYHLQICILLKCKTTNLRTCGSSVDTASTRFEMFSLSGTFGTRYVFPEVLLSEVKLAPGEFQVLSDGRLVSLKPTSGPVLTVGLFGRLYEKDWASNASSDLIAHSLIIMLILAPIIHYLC

With `Cc1nc(NCc2cnccn2)ncc1C(=O)N1CCC2(CCOCC2)C1` [PFI-653-N], the IC50 is 17600 nM (not active) in experiment [1], 3000 nM (not active) in experiment [2], 15000 nM (not active) in experiment [3] and 15000 nM (not active) in experiment [4].
For `O=C(c1cnc(NCc2cnccn2)nc1)N1CCC2(CCOCC2)C1` [PFI-653], the IC50 in experiment [3] is 24.5 nM (active); in experiment [4], 53.4 nM (active); in experiment [5] it was 12 nM (active).
